Laboratory results: article PMC8249783, “A novel multikinase inhibitor SKLB‐YTH‐60 ameliorates inflammation and fibrosis in bleomycin‐induced lung fibrosis mouse models” (Cell Proliferation, 2021)
Values joined by “and” are separate entries in the source; they are usually repeats but may differ in a detail not shown here. Equal entries are not always repeated. Where two headings read alike, the source gives them in different places.

Legend:
[1] = tested on: TNF‐α, IFN‐γ, IL‐2, IL‐4, IL‐10 and IL‐17A; assay: Serum cytokines in BLM mice (Th1/Th2/Th17 Cytokine Kit); type: in vivo, C57BL/6 mice; conditions: day 14
Method: Male C57BL/6 mice (8‐10 weeks old) were purchased from HFK Bioscience Co. Ltd. All animal experiments were permitted by the Institutional Animal Care and Treatment Committee of Sichuan University in China (New Permit Number: 20190524003). Lung fibrosis was induced using BLM treatment (2 mg·kg^−1). All C57BL/6 mice were divided into five groups (n = 10): a BLM + Nintedanib group (Nintedanib, 30 mg·kg^−1), a BLM + YTH‐60 group (YTH‐60, 15 mg·kg^−1 and 30 mg·kg^−1), a control group (Sham), and a bleomycin group (Vehicle). At the beginning, the mice were anaesthetized using 10% chloral hydrate, dissolved BLM with saline and administered intratracheally. To evaluate the preventive effect, the next day after BLM challenge, YTH‐60 and Nintedanib were administered intraperitoneally daily for 13 days (fibroproliferation) to the mice. All mice were sacrificed 24 hours after the last drug injection, the lungs and other organs were taken for the subsequent analysis. To test the therapeutic effect, after the 7th day of BLM treatment, mice were injected intraperitoneally with YTH‐60, Nintedanib and vehicle daily for 7 consecutive days (fibroproliferation).
IL‐2, IL‐4, IL‐10, IL‐17A, TNF‐α and IFN‐γ levels in mouse serum were determined using a mouse Th1/Th2/Th17 Cytokine Kit (BD Biosciences) according to the manufacturer's instructions. […]

phosphorylation of FGFR1 = assay: Western blot of FGFR signalling in fibroblasts; type: cell-based; conditions: 10 μmol·L^−1
Method: Samples of cells and mouse lung tissues were lysed in RIPA buffer with a protease and phosphatase inhibitors (Selleckchem). The protein concentrations in the cell lysate were measured by the Lowry method. Approximately 50 μg of total protein was separated by SDS‐PAGE and then transferred to polyvinylidene fluoride (PVDF) membranes (Amersham Bioscience). After the membranes incubation with the specific primary and secondary antibodies, the reactive bands were detected with enhanced chemiluminescent substrate to horseradish peroxidase.

[2] = Pharmacokinetics study after IV and PO administration to SD rats; type: in vivo
Method: The appropriate amount of YTH‐60 was accurately weighed, added to the final volume of 5% DMSO, 40% PEG400 and 55% normal saline, and vortexed or ultrasonicated to fully mix. Then, 0.4 and 2 mg·mL^−1 of clarified dosing solution was used for intravenous administration and oral gavage administration. SD rats were transferred from the Experimental Animal Library (999 M‐017), Shanghai Xipuer‐Beikai Experimental Animal Co. Ltd. After oral, intravenous or intragastric administration, blood was collected by jugular vein or other suitable methods. Approximately 0.20 mL of each sample was collected, in the presence of heparin sodium as an anticoagulant. After the blood samples were collected, they were placed on ice and centrifuged to separate plasma within 2 hours (centrifugation conditions: centrifugal force 6800 g, 6 minutes, 2‐8°C). The collected plasma samples were stored at −80°C before analysis by LC‐MS/MS‐18. After analysis, the remaining plasma samples were stored at −80°C for a period of 1 month.

- Individual plasma concentration ([2]; IV 2 mg/kg, 0.083 h, individual animals 101, 102, 103, 2 mg/kg): 423.84 ng/mL and 362.43 ng/mL
- Individual plasma concentration ([2]; IV 2 mg/kg, 0.25 h, individual animals 101, 102, 103, 2 mg/kg): 168.72 ng/mL and 204.54 ng/mL
- Individual plasma concentration ([2]; IV 2 mg/kg, 0.5 h, individual animals 101, 102, 103, 2 mg/kg): 128.91 ng/mL and 163.29 ng/mL
- Individual plasma concentration ([2]; IV 2 mg/kg, 1 h, individual animals 101, 102, 103, 2 mg/kg): 107.71 ng/mL and 131.39 ng/mL
- Individual plasma concentration ([2]; IV 2 mg/kg, 2 h, individual animals 101, 102, 103, 2 mg/kg): 69.27 ng/mL and 80.59 ng/mL
- Individual plasma concentration ([2]; IV 2 mg/kg, 4 h, individual animals 101, 102, 103, 2 mg/kg): 42.78 ng/mL and 48.71 ng/mL
- Individual plasma concentration ([2]; IV 2 mg/kg, 6 h, individual animals 101, 102, 103, 2 mg/kg): 34.45 ng/mL and 41.43 ng/mL
- Individual plasma concentration ([2]; IV 2 mg/kg, 8 h, individual animals 101, 102, 103, 2 mg/kg): 22.38 ng/mL and 32.19 ng/mL
- Individual plasma concentration ([2]; IV 2 mg/kg, 24 h, individual animals 101, 102, 103, 2 mg/kg): 2.68 ng/mL and 3.51 ng/mL
- Individual plasma concentration ([2]; PO 20 mg/kg, 0.25 h, individual animals 201, 202, 203, 20 mg/kg): 38.10 ng/mL and 22.94 ng/mL
- Individual plasma concentration ([2]; PO 20 mg/kg, 0.5 h, individual animals 201, 202, 203, 20 mg/kg): 25.31 ng/mL and 35.39 ng/mL
- Individual plasma concentration ([2]; PO 20 mg/kg, 1 h, individual animals 201, 202, 203, 20 mg/kg): 34.05 ng/mL and 26.26 ng/mL
- Individual plasma concentration ([2]; PO 20 mg/kg, 4 h, individual animals 201, 202, 203, 20 mg/kg): 83.13 ng/mL and 87.88 ng/mL
- Individual plasma concentration ([2]; PO 20 mg/kg, 6 h, individual animals 201, 202, 203, 20 mg/kg): 85.16 ng/mL and 114.92 ng/mL
- Individual plasma concentration ([2]; PO 20 mg/kg, 8 h, individual animals 201, 202, 203, 20 mg/kg): 79.77 ng/mL and 97.21 ng/mL
- Individual plasma concentration ([2]; PO 20 mg/kg, 24 h, individual animals 201, 202, 203, 20 mg/kg): 14.36 ng/mL and 18.49 ng/mL
- concentration at 2 h ([2]; SD, rat, plasma, iv, 2 mg/kg, IV 2 mg/kg, 2 h, individual animals 101, 102, 103, read-out: Individual plasma concentration): 0.0683 µg/mL
- concentration at 2 h ([2]; SD, rat, plasma, iv, 2 mg/kg, IV 2 mg/kg, 2 h, read-out: Mean plasma concentration): 0.0727 µg/mL
- concentration at 4 h ([2]; SD, rat, plasma, iv, 2 mg/kg, IV 2 mg/kg, 4 h, individual animals 101, 102, 103, read-out: Individual plasma concentration): 0.0411 µg/mL
- concentration at 4 h ([2]; SD, rat, plasma, iv, 2 mg/kg, IV 2 mg/kg, 4 h, read-out: Mean plasma concentration): 0.0442 µg/mL
- concentration at 6 h ([2]; SD, rat, plasma, iv, 2 mg/kg, IV 2 mg/kg, 6 h, individual animals 101, 102, 103, read-out: Individual plasma concentration): 0.0368 µg/mL
- concentration at 6 h ([2]; SD, rat, plasma, iv, 2 mg/kg, IV 2 mg/kg, 6 h, read-out: Mean plasma concentration): 0.0376 µg/mL
- concentration at 8 h ([2]; SD, rat, plasma, iv, 2 mg/kg, IV 2 mg/kg, 8 h, individual animals 101, 102, 103, read-out: Individual plasma concentration): 0.0204 µg/mL
- AUC ([2]; SD, rat, plasma, iv, 2 mg/kg, SD rats, i.v. 2 mg·kg^−1, read-out: AUC0‐t): 0.773 ± 0.0994 µg·h/mL
- AUC ([2]; SD, rat, plasma, iv, 2 mg/kg, SD rats, i.v. 2 mg·kg^−1, read-out: AUC0‐∞): 0.793 ± 0.104 µg·h/mL
- MRT ([2]; SD, rat, plasma, iv, 2 mg/kg, SD rats, i.v. 2 mg·kg^−1, read-out: MRT0‐t): 4.5 ± 0.28 h
- MRT ([2]; SD, rat, plasma, iv, 2 mg/kg, SD rats, i.v. 2 mg·kg^−1, read-out: MRT0‐∞): 5.16 ± 0.36 h
- AUC ([2]; SD, rat, plasma, iv, 2 mg·kg^−1, SD rats, after an IV dose, read-out: mean AUC(0‐t)): 0.773 µg·h/mL
- concentration at 2 h ([2]; SD, rat, plasma, po, 20 mg/kg, PO 20 mg/kg, 2 h, read-out: Mean plasma concentration): 0.06 µg/mL
- concentration at 4 h ([2]; SD, rat, plasma, po, 20 mg/kg, PO 20 mg/kg, 4 h, individual animals 201, 202, 203, read-out: Individual plasma concentration): 0.0847 µg/mL
- concentration at 4 h ([2]; SD, rat, plasma, po, 20 mg/kg, PO 20 mg/kg, 4 h, read-out: Mean plasma concentration): 0.0852 µg/mL
- concentration at 6 h ([2]; SD, rat, plasma, po, 20 mg/kg, PO 20 mg/kg, 6 h, individual animals 201, 202, 203, read-out: Individual plasma concentration): 0.0825 µg/mL
SMILES: COc1cc(OC)c(Cl)c(-c2ccc3c(/C=C/c4ccc(N(C)C(=O)CN5CCN(C)CC5)cc4)n[nH]c3c2)c1Cl [YTH‐60, (E)‐N‐(4‐(2‐(6‐(2,6‐dichloro‐3,5‐dimethoxyphenyl)‐1H‐indazol‐3‐yl)vinyl)phenyl)‐N‐methyl‐2‐(4‐methylpiperazin‐1‐yl)acetamide]
- inflammatory cytokines in serum (in words) [1]: reduced the expression level of these inflammatory cytokines
- phosphorylation of FGFR1 (in words) (phosphorylation of FGFR1): inhibited the phosphorylation of FGFR1
- Individual plasma concentration ([2]; PO 20 mg/kg, 2 h, individual animals 201, 202, 203, 20 mg/kg): 87.47 ng/mL and 35.35 ng/mL and 57.08 ng/mL
